# Measurements taken from US7465805B2, “Isoxazoline derivatives and their use as herbicides” (Syngenta Limited, priority 2004, dated 2008).
# Columns and labels:
# [1] = tested on: Monocotyledonous and dicotyledonous test plants; test: Herbicidal action, application pre-emergence (Example B1); type: in vivo; design: key: 10=total damage to plant; 0=no damage to plant; conditions: 1000 g/ha, scale 10=total damage to plant, 0=no damage to plant, evaluated after 9 or 13 days
# Description: Monocotyledonous and dicotyledonous test plants were sown in sterilised standard soil in seed trays each having 96 cells. After one day (pre-emergence) or after 8 to 9 days cultivation (post-emergence) under controlled conditions in a climatic chamber (cultivation at 17/23° C.; 13 hours light; 50-60% humidity; after application at 19/24° C.), the plants were treated with an aqueous spray solution of 1000 mg/l of the active ingredient used (including 10% DMSO as solvent). The plants were grown on in the climatic chamber until the test was evaluated (10=total damage to plant, 0=no damage to plant) after 9 or 13 days.
# maize (Marista) = test: Pre-emergent safening test on maize (Example E1); type: in vivo; conditions: Comp. 1.01 WP 25% AW/W alone, evaluated after 14 days
# Description: The test plants were sown in seed trays under greenhouse conditions. A standard earth was used as the culture substrate. In a pre-emergent stage, the herbicides were applied both by themselves and in a mixture with safeners to the soil surface. The application was carried out with an aqueous suspension of the test substances, prepared from a 25% wettable powder (Example F3, b according to WO 97/34485) or from a suspension concentrate (Example F8 according to WO 97/34485), to achieve a field equivalent of 200 1/ha. The tests were evaluated after 14 days (100%=plants completely dead; 0%=no phytotoxic action on the plants).
SMILES,Herbicidal action on Agrostis (damage rating) [1],Herbicidal action on Digitaria (damage rating) [1],Herbicidal action on Poa (damage rating) [1],Herbicidal action on Setaria (damage rating) [1],melting point [°C],phytotoxic action on maize (100%=plants completely dead; 0%=no phytotoxic action on the plants) (maize (Marista); 200 g/ha) [%],phytotoxic action on maize (100%=plants completely dead; 0%=no phytotoxic action on the plants) (maize (Marista); 400 g/ha) [%]
CC1(C)CC(S(=N)(=O)C(Cl)c2c(F)cccc2F)=NO1 (mixture of isomers) [1.02],10,10,10,10,–,–,–
CC(Cl)OC(=O)N=S(=O)(Cc1c(F)cccc1F)C1=NOC(C)(C)C1 (mixture of isomers) [1.17],10,8,10,8,–,–,–
CC1(C)CC(S(=N)(=O)C(F)c2ccccc2OC(F)(F)F)=NO1 (mixture of isomers) [1.56],10,9,10,8,–,–,–
CC1(C)CC(S(=O)(Cc2c(F)cccc2F)=NC(=O)c2ccc(Cl)cc2)=NO1 (centres unmarked) [1.03],7,8,10,8,154 to 156,–,–
"CC1(C)CC(S(=O)(Cc2c(F)cccc2F)=NC(=O)C(F)(F)F)=NO1 (centres unmarked) [1.04, 3-{2,6-difluoro-phenylmethane(N-trifluoromethyl-carbonyl)sulfoximinyl)-5,5-dimethyl-4,5-dihydroisoxazole]",10,10,10,10,143 to 144,–,–
CC1(C)CC(S(=O)(=NC(=O)C(F)(F)F)C(Cl)c2c(F)cccc2F)=NO1 (centres unmarked) [1.05],10,9,10,9,–,–,–
CC(C)(C)OC(=O)N=S(=O)(Cc1c(F)cccc1F)C1=NOC(C)(C)C1 (centres unmarked) [1.06],9,7,6,10,–,–,–
CC(=O)N=S(=O)(Cc1c(F)cccc1F)C1=NOC(C)(C)C1 (centres unmarked) [1.07],10,9,10,9,–,–,–
"CN=S(=O)(Cc1c(F)cccc1F)C1=NOC(C)(C)C1 (centres unmarked) [1.08, 3-{2,6-difluoro-phenylmethane(N-methyl)sulfoximinyl)-5,5-dimethyl-4,5-dihydroisoxazole]",10,7,10,9,–,–,–
CC1(C)CC(S(=O)(Cc2c(F)cccc2F)=NC=O)=NO1 (centres unmarked) [1.13],10,9,10,9,–,–,–
"CC1(C)CC(S(=O)(Cc2c(F)cccc2F)=NS(=O)(=O)C(F)(F)F)=NO1 (centres unmarked) [1.14, 3-{2,6-difluoro-phenylmethane(N-trifluoromethylsulphonyl)-sulfoximinyl)-5,5-dimethyl-4,5-dihydroisoxazole]",10,7,10,0,108,–,–
CC1(C)CC(S(=O)(Cc2c(F)cccc2F)=N[N+](=O)[O-])=NO1 (centres unmarked) [1.15],10,9,10,8,–,–,–
CC(c1c(F)cccc1F)S(=O)(=NC(=O)C(F)(F)F)C1=NOC(C)(C)C1 (centres unmarked) [1.19],10,9,6,9,–,–,–
CC(c1c(F)cccc1F)S(=O)(=NC(=O)C(F)(F)F)C1=NOC(C)(C)C1 (centres unmarked) [1.20],9,8,4,8,–,–,–
CC1(C)CC(S(=O)(Cc2c(F)cccc2F)=NC(=O)c2cccnc2Cl)=NO1 (centres unmarked) [1.21],10,9,10,9,–,–,–
CC1(C)CC(S(=N)(=O)C(F)(F)c2c(F)cccc2F)=NO1 (centres unmarked) [1.22],10,10,10,10,–,–,–
CC1(C)CC(S(=N)(=O)Cc2ccccc2OC(F)(F)F)=NO1 (centres unmarked) [1.24],10,9,0,8,–,–,–
CC1(C)CC(S(=N)(=O)Cc2ccccc2OC(F)F)=NO1 (centres unmarked) [1.25],10,9,10,8,–,–,–
Cc1ccccc1CS(=N)(=O)C1=NOC(C)(C)C1 (centres unmarked) [1.27],5,8,0,5,–,–,–
Cc1ccc(F)c(CS(=N)(=O)C2=NOC(C)(C)C2)c1F (centres unmarked) [1.28],10,9,10,8,–,–,–
CC1(C)CC(S(=N)(=O)Cc2cccc(F)c2F)=NO1 (centres unmarked) [1.29],10,8,10,6,–,–,–
CC1(C)CC(S(=N)(=O)Cc2ccc(F)cc2F)=NO1 (centres unmarked) [1.30],10,10,10,8,–,–,–
CC1(C)CC(S(=N)(=O)Cc2ccccc2C(F)(F)F)=NO1 (centres unmarked) [1.31],10,8,8,8,–,–,–
CC1(C)CC(S(=N)(=O)Cc2c(F)cccc2C(F)(F)F)=NO1 (centres unmarked) [1.32],10,10,10,9,–,–,–
CC1(C)CC(S(=N)(=O)Cc2cc(F)ccc2F)=NO1 (centres unmarked) [1.34],10,9,10,8,–,–,–
CC1(C)CC(S(=O)(=NC(=O)c2ccccc2)C(F)c2c(F)cccc2F)=NO1 (centres unmarked) [1.35],10,8,10,8,–,–,–
CC1(C)CC(S(=O)(Cc2c(F)cccc2F)=NC(=O)c2ccccc2)=NO1 (centres unmarked) [1.36],10,5,0,7,–,–,–
CC1(C)CC(S(=N)(=O)Cc2cc(F)cc3c2OCOC3)=NO1 (centres unmarked) [1.48],0,8,0,8,–,–,–
Cn1nc(C(F)(F)F)c(CS(=N)(=O)C2=NOC(C)(C)C2)c1Cl (centres unmarked) [2.01],10,10,10,10,–,–,–
CC1(C)CC(S(=N)(=O)Cc2c(F)cccc2F)=NO1 (centres unmarked) [Comp. 1.01],10,10,10,9,–,67.5,62.5
